Data: patent US20220305012A1, “L[…] TREATING SLEEP ISSUES” (EISAI R&D MANAGEMENT CO., LTD., priority 2019, published 2022)

Legend:
Type in all cases: in vivo, human
[1] = tested on: Subjects Having Insomnia Disorder; assay: Example 2: subjective sleep efficiency (sSE), sleep diary; details: Zolpidem ER 6.25 mg
From the text: As used herein, the term “subjective sleep efficiency”, abbreviated as “sSE”, means the proportion of sTST per subjective time spent in bed, calculated as the interval from the time the subject reports attempting to sleep until the time the subject stopped trying to sleep for the night (operationalized as the time the subject got out of bed for the day), and time spent asleep derived from subjective time spent in bed minus sWASO. As used herein, an “improvement of sleep efficiency in Subjective Sleep Efficiency (sSE)” means an increase in sleep efficiency in Subjective Sleep Efficiency (sSE).
(§1) In some embodiments, sleep diaries were used to assess sleep parameters reported by subjects (i.e., subjective assessments) including subjective sleep onset latency (sSOL), subjective sleep efficiency (sSE), subjective WASO (sWASO), and subjective total sleep time (sTST). Subjects were instructed to complete the Sleep Diary developed based on the consensus Sleep Diary as described in Carney et al., “The consensus sleep diary: standardizing prospective sleep self-monitoring,” Sleep 2012; 35(2):287-302. In some embodiments, the Sleep Diary was used to assess the subject's global perception of quality of sleep on the previous night with the following question: “How would you rate the quality of your sleep last night?” Subjects rated the quality of their sleep on a scale from 1 to 9, with 1 being extremely poor and 9 being extremely good. In some embodiments, the Sleep Diary was used to assess subjective ratings of morning sleepiness with the following question: “How alert/sleepy do you feel this morning?” Subjects rated their sleepiness/alertness level on a Likert scale from 1 to 9, with 1 being extremely sleepy and 9 being extremely alert.
sSE—subjective sleep efficiency: proportion of sTST per subjective time spent in bed, calculated as the interval from the time the subject reports attempting to sleep until the time the subject stopped trying to sleep for the night (operationalized as the time the subject got out of bed for the day), and time spent asleep derived from subjective time in bed minus sWASO.
(§2) The treatment period lasted for 31 days. Subjects were randomized in a double-blind manner and received placebo, a tablet containing 5 mg of lemborexant, a tablet containing 10 mg of lemborexant, or a tablet containing 6.25 mg of zolpidem ER.
(§3) Once home, the subject ingested study drug each night prior to bedtime and completed their sleep diary within 1 hour of waketime.

[2] = tested on: Subjects Having Insomnia Disorder; assay: Example 2: subjective wake after sleep onset (sWASO), sleep diary; details: Zolpidem ER 6.25 mg
From the text: As used herein, the term “subjective wake after sleep onset”, abbreviated as “sWASO”, means the sum of estimated minutes of wake during the night after initial sleep onset until the time the subject stopped trying to sleep for the night, operationalized as the time the subject got out of bed for the day. In some embodiments, sWASO is derived from data entered in a subject's Sleep Diary. As used herein, an “improvement of sWASO” means a reduction in sWASO.
as §1
sWASO—subjective wake after sleep onset: sum of estimated minutes of wake during the night after initial sleep onset until the time the subject stopped trying to sleep for the night, operationalized as the time the subject got out of bed for the day.
as §2, §3

[3] = tested on: Subjects Having Insomnia Disorder; assay: Example 2: return to sleep latency; details: Zolpidem 6.25 mg
[4] = tested on: Subjects Having Insomnia Disorder; assay: Example 2: subjective total sleep time (sTST), sleep diary; details: Zolpidem ER 6.25 mg
From the text: As used herein, the term “subjective total sleep time”, abbreviated as “sTST”, means the derived minutes of sleep from sleep onset until the time the subject stopped trying to sleep for the night. In some embodiments, sTST is derived from data entered in a subject's Sleep Diary.
as §1
sTST—subjective total sleep time: derived minutes of sleep from sleep onset until the time the subject stopped trying to sleep for the night.
as §2, §3

[5] = tested on: Subjects Having Insomnia Disorder; assay: Example 2: total sleep time (TST), polysomnography; details: Zolpidem ER 6.25 mg
Protocol: In some embodiments, a sleep parameter is determined objectively using polysomnography. Polysomnography is the monitoring of multiple electrophysiological parameters during sleep and generally includes measurement of EEG activity, electro-oculographic activity and electromyographic activity, as well as other measurements.
TST—total sleep time: minutes of sleep from sleep onset until terminal awakening.
as §2
Within 5 minutes of the subject's mean habitual bedtime, study drug was administered and an overnight polysomnogram recording was initiated. At completion of the recording the following morning (Day 2), postural stability and cognitive performance were assessed. On the Day 2 evening, subjects returned to the clinic and a blood sample was collected before administering study drug, and then study drug was administered within 5 minutes of the subject's mean habitual bedtime. Again, a polysomnogram recording was initiated. The next morning (Day 3), postural stability and cognitive performance were assessed. A blood sample was also collected.
On Day 29, subjects returned to the clinic. Study drug was administered within 5 minutes of the subject's mean habitual bedtime and a polysomnogram recording was conducted. On the following morning (Day 30), postural stability and cognitive performance were assessed. After 1.5 hours of waketime, subjects rated their morning sleepiness level.
On the evening of Day 30, subjects returned to the clinic. A pre-dose blood sample was collected and study drug was again administered within 5 minutes of the subject's mean habitual bedtime. A polysomnogram recording was initiated. The following morning (Day 31), postural stability and cognitive performance were assessed and a blood sample was obtained. The ISI, FSS, EQ-5D-3L and PGI-Insomnia were administered. Blood and urine samples were collected for routine safety assessment. An electrocardiogram was performed, and vital signs and weight were assessed. The eC-SSRS was then administered to the subject. At 1.5 hours after waketime, subjects rated their morning sleepiness level.

## Cc1ccc(-c2nc3ccc(C)cn3c2CC(=O)N(C)C)cc1 [Zolpidem ER, zolpidem, reference compound]
[1]; First 7 Nights of Treatment
  Subjective Sleep Efficiency, Change from Study Baseline, Mean (SD): 11.96 (12.526)
  Subjective Sleep Efficiency, Mean (SD): 66.45 (16.419)
  Subjective Sleep Efficiency, Model-adjusted change from baseline: 12.11
[1]; Last 7 Nights of Treatment
  Subjective Sleep Efficiency, Change from Study Baseline, Mean (SD): 14.83 (15.011)
  Subjective Sleep Efficiency, Mean (SD): 69.45 (16.925)
  Subjective Sleep Efficiency, Model-adjusted change from baseline: 14.82
[2]; First 7 Nights of Treatment
  Subjective Wake After Sleep Onset, Change from Study Baseline, Mean (SD): −48.91 (51.761)
  Subjective Wake After Sleep Onset, Mean (SD): 124.83 (75.279)
  Subjective Wake After Sleep Onset, Model-adjusted change from baseline: −48.09
[2]; Last 7 Nights of Treatment
  Subjective Wake After Sleep Onset, Change from Study Baseline, Mean (SD): −63.52 (64.161)
  Subjective Wake After Sleep Onset, Mean (SD): 109.63 (72.583)
  Subjective Wake After Sleep Onset, Model-adjusted change from baseline: −62.00
[3]
  Return to Sleep Latency, LSM - Difference vs. Placebo: -21.0 min
  Return to Sleep Latency, Mean (SD) change from baseline: -21.2 min
  Return to Sleep Latency, Postdose: 19.6 min
[4]; First 7 Nights of Treatment
  Subjective Total Sleep Time, Change from Study Baseline, Mean (SD): 56.99 (62.880)
  Subjective Total Sleep Time, Mean (SD): 325.64 (81.845)
  Subjective Total Sleep Time, Model-adjusted change from baseline: 57.71
[4]; Last 7 Nights of Treatment
  Subjective Total Sleep Time, Change from Study Baseline, Mean (SD): 71.01 (76.574)
  Subjective Total Sleep Time, Mean (SD): 340.20 (83.582)
  Subjective Total Sleep Time, Model-adjusted change from baseline: 71.04
[5]; Days 1/2
  Total Sleep Time, Change from Study Baseline, Mean (SD): 55.31 (48.138)
  Total Sleep Time, Change from Study Baseline, Median: 52.00
  Total Sleep Time, Mean (SD): 382.42 (41.528)
  Total Sleep Time, Median: 387.25
[5]; Days 29/30
  Total Sleep Time, Change from Study Baseline, Mean (SD): 43.34 (54.012)
  Total Sleep Time, Change from Study Baseline, Median: 39.63
  Total Sleep Time, Mean (SD): 370.25 (48.855)
  Total Sleep Time, Median: 377.75
